Each structure is given as a SMILES string. Some results are limits rather than exact numbers.

Assay [1] deals with human activated kallikrein enzyme (Homo sapiens, UniProt P03952). Kind of assay: Plasma kallikrein inhibition, fluorogenic PFR-AMC substrate, 500 pM activated kallikrein format. Particulars: 500 pM activated kallikrein, 300 uM PFR-AMC, 30 min preincubation, 10 min reaction; read-out: Primary Dose Response Assay: Average EC50. The assay is classed as biochemical. The method in brief: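 Fluorescence (ex 380/em 460 nm) is read after 10 min of 300 uM PFR-AMC turnover by 500 pM enzyme at RT. Compounds sit with enzyme for 30 min beforehand. Buffer is Tris (pH 7.5) with EDTA, NaCl, PEG-400 and Triton X-100; EC50 values are banded.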

The target in assay [2] is T1, plasma kallikrein (Homo sapiens, UniProt P03952).
T1 construct: from tissue
Put plainly: Neat human plasma assay, FXIIa contact pathway-activated, PFR-AMC substrate. The assay is classed as biochemical. Particulars: citrated human plasma 78% final, 10 nM human FXIIa, 100 μM PFR-AMC; read-out: Human Plasma Assay: IC90. The gist of the method: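 Compound inhibition of plasma kallikrein measured as PFR-AMC (100 μM) cleavage rate over 5 min at room temperature in 78% citrated human plasma activated with 10 nM FXIIa (Tris pH 7.5 buffer). IC50/IC90 from 4-parameter fit of rate versus inhibitor concentration.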

Sequence of human activated kallikrein enzyme (P03952 391-638 limits assumed): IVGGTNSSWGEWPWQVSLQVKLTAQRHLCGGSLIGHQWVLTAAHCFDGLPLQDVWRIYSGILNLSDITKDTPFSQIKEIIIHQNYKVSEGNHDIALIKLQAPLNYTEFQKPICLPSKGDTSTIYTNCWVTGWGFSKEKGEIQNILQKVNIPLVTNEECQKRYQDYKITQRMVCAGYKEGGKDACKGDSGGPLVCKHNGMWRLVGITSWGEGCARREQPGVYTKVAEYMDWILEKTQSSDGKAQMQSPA
Sequence of human activated kallikrein enzyme (P03952 20-390 partner limits assumed): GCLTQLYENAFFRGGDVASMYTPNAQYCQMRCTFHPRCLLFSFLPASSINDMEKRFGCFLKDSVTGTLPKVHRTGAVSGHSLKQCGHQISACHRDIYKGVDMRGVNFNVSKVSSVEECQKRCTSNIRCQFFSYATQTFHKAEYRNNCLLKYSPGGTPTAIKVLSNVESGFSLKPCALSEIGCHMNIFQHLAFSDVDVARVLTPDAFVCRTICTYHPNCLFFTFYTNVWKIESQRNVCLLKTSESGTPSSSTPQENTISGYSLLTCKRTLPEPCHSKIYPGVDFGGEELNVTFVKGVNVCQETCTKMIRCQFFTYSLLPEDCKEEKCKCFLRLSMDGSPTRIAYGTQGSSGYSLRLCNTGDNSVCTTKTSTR
T1 sequence (P03952 391-638 limits assumed): as the sequence (P03952 391-638 limits assumed) above
T1 sequence (P03952 20-390 partner limits assumed): as the sequence (P03952 20-390 partner limits assumed) above

Regarding `CC(=O)N(C)c1cc(C2CC2)cn2cc(CNc3cc(NC(=O)[C@H]4C[C@@H]4c4cccc(Cl)c4)ncn3)nc12` [Example 274, (1S,2S)-2-(3-chlorophenyl)-N-(6-(((6-cyclopropyl-8-(N-methylacetamido)imidazo[1,2-a]pyridin-2-yl)methyl)amino)pyrimidin-4-yl)cyclopropane-1-carboxamide], in assay [1], the EC50 (usually the concentration needed to bring the measured effect to its halfway point) lay within 0.001 to 0.01 µM. Moreover, the IC90 (commonly the concentration at which the effect reaches the 90% level) in assay [2] lay within 1.5 to 10 µM.
For `CC(=O)Nc1cc(C2CC2)cn2cc(CNc3cc(NC(=O)[C@H]4C[C@@H]4c4cccc(Cl)c4)ncn3)nc12` [Example 275, (1S,2S)—N-(6-(((8-acetamido-6-cyclopropylimidazo[1,2-a]pyridin-2-yl)methyl)amino)pyrimidin-4-yl)-2-(3-chlorophenyl)cyclopropane-1-carboxamide] the same measures were 0.001 to 0.01 µM and 1.5 to 10 µM.
For `Cc1ccnc([C@H]2C[C@@H]2C(=O)Nc2cc(N[C@H](C)c3cn4cc(C5CC5)cc(N5CC(=O)N(C)C5=O)c4n3)nc(OCCN(C)C)n2)n1` [Example 276, (1S,2S)—N-(6-(((R)-1-(6-cyclopropyl-8-(3-methyl-2,4-dioxoimidazolidin-1-yl)imidazo[1,2-a]pyridin-2-yl)ethyl)amino)-2-(2-(dimethylamino)ethoxy)pyrimidin-4-yl)-2-(4-methylpyrimidin-2-yl)cyclopropane-1-carboxamide] the same measures were less than 0.001 µM and less than 0.4 µM.
In the same order, the values of `CC(O)c1cc(C2CC2)cn2cc(CNc3cc(NC(=O)[C@H]4C[C@@H]4c4cccc(Cl)c4)ncn3)nc12` (stereo partly drawn) [Example 281, (1S,2S)-2-(3-chlorophenyl)-N-(6-(((6-cyclopropyl-8-(1-hydroxyethyl)imidazo[1,2-a]pyridin-2-yl)methyl)amino)pyrimidin-4-yl)cyclopropane-1-carboxamide] are 0.001 to 0.01 µM and 10 to 48 µM.
`O=C(Nc1cc(N2C[C@@H](O)C[C@@H]2c2cn3cc(C4CC4)ccc3n2)ccn1)[C@H]1C[C@@H]1c1cccc(Cl)c1` [Example 282, (1S,2S)-2-(3-chlorophenyl)-N-(4-((2R,4S)-2-(6-cyclopropylimidazo[1,2-a]pyridin-2-yl)-4-hydroxypyrrolidin-1-yl)pyridin-2-yl)cyclopropane-1-carboxamide]: in assay [1], the EC50 is 0.001 to 0.01 µM. Moreover, the IC90 in assay [2] lay in the range of 1.5 to 10 µM.
In the same order, the values of `O=C(Nc1cc(N2C[C@@H](O)C[C@@H]2c2cn3cc(C4CC4)ccc3n2)ncn1)[C@H]1C[C@@H]1c1cccc(Cl)c1` [Example 283, (1S,2S)-2-(3-chlorophenyl)-N-(6-((2R,4S)-2-(6-cyclopropylimidazo[1,2-a]pyridin-2-yl)-4-hydroxypyrrolidin-1-yl)pyrimidin-4-yl)cyclopropane-1-carboxamide] are 0.001 to 0.01 µM and 1.5 to 10 µM.
For `O=C(Nc1cc(NCc2cn3cc(C4CC4)cc(C4CNC4)c3n2)ccn1)[C@H]1C[C@@H]1c1cccc(Cl)c1` [Example 284, (1S,2S)—N-(4-(((8-(azetidin-3-yl)-6-cyclopropylimidazo[1,2-a]pyridin-2-yl)methyl)amino)pyridin-2-yl)-2-(3-chlorophenyl)cyclopropane-1-carboxamide] the same measures were less than 0.001 µM and less than 0.4 µM.
As for `CN1CCN(c2cc(C3CC3)cn3cc(CNc4cc(NC(=O)[C@H]5C[C@@H]5c5cccc(Cl)c5)nc(O)n4)nc23)CC1` [Example 285, (1S,2S)-2-(3-chlorophenyl)-N-(6-(((6-cyclopropyl-8-(4-methylpiperazin-1-yl)imidazo[1,2-a]pyridin-2-yl)methyl)amino)-2-hydroxypyrimidin-4-yl)cyclopropane-1-carboxamide], in assay [1], the EC50 was less than 0.001 µM. Also, in assay [2], the IC90 is less than 0.4 µM.
In the same order, the values of `O=C(Nc1cc(NCc2cn3cc(C4CC4)cc(COCCO)c3n2)ccn1)[C@H]1C[C@@H]1c1cccc(Cl)c1` [Example 288, (1S,2S)-2-(3-chlorophenyl)-N-(4-(((6-cyclopropyl-8-((2-hydroxyethoxy)methyl)imidazo[1,2-a]pyridin-2-yl)methyl)amino)pyridin-2-yl)cyclopropane-1-carboxamide] are less than 0.001 µM and 1.5 to 10 µM.
In the same order, the values of `O=C(O)CCc1cc(C2CC2)cn2cc(CNc3ccnc(NC(=O)[C@H]4C[C@@H]4c4cccc(Cl)c4)c3)nc12` [Example 290, 3-(2-(((2-((1S,2S)-2-(3-chlorophenyl)cyclopropane-1-carboxamido)pyridin-4-yl)amino)methyl)-6-cyclopropylimidazo[1,2-a]pyridin-8-yl)propanoic acid] are less than 0.001 µM and 1.5 to 10 µM.
As for `O=C(Nc1cc(NCc2cn3cc(C4CC4)cc(CCCO)c3n2)ccn1)[C@H]1C[C@@H]1c1cccc(Cl)c1` [Example 291, (1S,2S)-2-(3-chlorophenyl)-N-(4-(((6-cyclopropyl-8-(3-hydroxypropyl)imidazo[1,2-a]pyridin-2-yl)methyl)amino)pyridin-2-yl)cyclopropane-1-carboxamide], the EC50 in assay [1] was less than 0.001 µM. Moreover, in assay [2], the IC90 was in the range of 1.5 to 10 µM.
For `O=C(Nc1cc(NCc2cn3cc(C4CC4)cc(CCO)c3n2)ccn1)[C@H]1C[C@@H]1c1cccc(Cl)c1` [Example 292, (1S,2S)-2-(3-chlorophenyl)-N-(4-(((6-cyclopropyl-8-(2-hydroxyethyl)imidazo[1,2-a]pyridin-2-yl)methyl)amino)pyridin-2-yl)cyclopropane-1-carboxamide] the same measures were less than 0.001 µM and 1.5 to 10 µM.
For `NCc1cc(C2CC2)cn2cc(CNc3ccnc(NC(=O)[C@H]4C[C@@H]4c4cccc(Cl)c4)c3)nc12` [Example 293, (1S,2S)—N-(4-(((8-(aminomethyl)-6-cyclopropylimidazo[1,2-a]pyridin-2-yl)methyl)amino)pyridin-2-yl)-2-(3-chlorophenyl)cyclopropane-1-carboxamide] the same measures were less than 0.001 µM and 1.5 to 10 µM.
In the same order, the values of `O=C(Nc1nc(O)nc(NCc2cn3cc(C4CC4)ccc3n2)n1)[C@H]1C[C@@H]1c1cccc(Cl)c1` [Example 295, (1S,2S)-2-(3-chlorophenyl)-N-(4-(((6-cyclopropylimidazo[1,2-a]pyridin-2-yl)methyl)amino)-6-hydroxy-1,3,5-triazin-2-yl)cyclopropane-1-carboxamide] are less than 0.001 µM and 1.5 to 10 µM.
For `O=C(Nc1cc(NCc2cn3cc(C4CC4)ccc3n2)nc(=O)[nH]1)[C@H]1C[C@@H]1c1cccc(Cl)c1` [Example 296, (1S,2S)-2-(3-chlorophenyl)-N-(6-(((6-cyclopropylimidazo[1,2-a]pyridin-2-yl)methyl)amino)-2-oxo-2,3-dihydropyrimidin-4-yl)cyclopropane-1-carboxamide], in assay [1], the EC50 was less than 0.001 µM. Moreover, the IC90 in assay [2] lay within 1.5 to 10 µM.
In the same order, the values of `CN(C)C(=O)c1cc(C2CC2)cn2cc(CNc3cc(NC(=O)[C@H]4C[C@@H]4c4cccc(Cl)c4)ncn3)nc12` [Example 299, 2-(((6-((1S,2S)-2-(3-chlorophenyl)cyclopropane-1-carboxamido)pyrimidin-4-yl)amino)methyl)-6-cyclopropyl-N,N-dimethylimidazo[1,2-a]pyridine-8-carboxamide] are less than 0.001 µM and 0.4 to 1.5 µM.
In the same order, the values of `O=C(Nc1cc(NCc2cn3cc(C4CC4)cc(C(=O)N4CCOCC4)c3n2)ncn1)[C@H]1C[C@@H]1c1cccc(Cl)c1` [Example 300, (1S,2S)-2-(3-chlorophenyl)-N-(6-(((6-cyclopropyl-8-(morpholine-4-carbonyl)imidazo[1,2-a]pyridin-2-yl)methyl)amino)pyrimidin-4-yl)cyclopropane-1-carboxamide] are less than 0.001 µM and 1.5 to 10 µM.
In the same order, the values of `CN1CCN(C(=O)c2cc(C3CC3)cn3cc(CNc4cc(NC(=O)[C@H]5C[C@@H]5c5cccc(Cl)c5)ncn4)nc23)CC1` [Example 301, (1S,2S)-2-(3-chlorophenyl)-N-(6-(((6-cyclopropyl-8-(4-methylpiperazine-1-carbonyl)imidazo[1,2-a]pyridin-2-yl)methyl)amino)pyrimidin-4-yl)cyclopropane-1-carboxamide] are less than 0.001 µM and 1.5 to 10 µM.
Consider `O=C(Nc1cc(NCc2cn3cc(C4CC4)cc(C(=O)N4CCNCC4)c3n2)ncn1)[C@H]1C[C@@H]1c1cccc(Cl)c1` [Example 304, (1S,2S)-2-(3-chlorophenyl)-N-(6-(((6-cyclopropyl-8-(piperazine-1-carbonyl)imidazo[1,2-a]pyridin-2-yl)methyl)amino)pyrimidin-4-yl)cyclopropane-1-carboxamide], for which, in assay [1], the EC50 is less than 0.001 µM. Moreover, in assay [2], the IC90 is less than 0.4 µM.
In the same order, the values of `O=C(Nc1cc(NCc2cn3cc(C4CC4)cc(-c4ccc[nH]c4=O)c3n2)ncn1)[C@H]1C[C@@H]1c1cccc(Cl)c1` [Example 305, (1S,2S)-2-(3-chlorophenyl)-N-(6-(((6-cyclopropyl-8-(2-oxo-1,2-dihydropyridin-3-yl)imidazo[1,2-a]pyridin-2-yl)methyl)amino)pyrimidin-4-yl)cyclopropane-1-carboxamide] are 0.001 to 0.01 µM and 1.5 to 10 µM.
With `O=C(Nc1cc(NCc2cn3cc(C4CC4)cc(N4CCNCC4)c3n2)ncn1)[C@H]1C[C@@H]1c1cccc(Cl)c1` [Example 307, (1S,2S)-2-(3-chlorophenyl)-N-(6-(((6-cyclopropyl-8-(piperazin-1-yl)imidazo[1,2-a]pyridin-2-yl)methyl)amino)pyrimidin-4-yl)cyclopropane-1-carboxamide], the EC50 in assay [1] was less than 0.001 µM. Besides, the IC90 in assay [2] is less than 0.4 µM.

The values are drawn from US20240228488A1 (TAKEDA PHARMACEUTICAL COMPANY LIMITED, priority 2021, published 2024).
